In patent US20260035403A1, “NUCLEOSIDE LINE-1 INHIBITORS” (TRANSPOSON THERAPEUTICS, INC., priority 2022, published 2026):

System: human LINE-1
Experiment: Human LINE-1 retrotransposition assay (HeLa cell-based dual-luciferase reporter)
Conditions: Homo sapiens, HeLa, 72 h, Human LINE-1 activity inhibition; HeLa cells, reporter plasmid pYX017, Firefly/Renilla, 72 h incubation
Summary of the method: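 HeLa cells transfected with pYX017 dual-luciferase L1 reporter and treated with serially diluted compound (0.2% DMSO final) for 72 h at 37° C. Relative L1 activity as Firefly/Renilla ratio; IC50 from four-parameter logistic fit.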

Compared with `C#C[C@@]1(COC)C=C[C@H](n2cc(C)c(=O)[nH]c2=O)O1` [compound 106, 1-((2R,5R)-5-ethynyl-5-(methoxymethyl)-2,5-dihydrofuran-2-yl)-5-methylpyrimidine-2,4(1H,3H)-dione], `COC[C@@H]1C=C[C@H](n2cc(C)c(=O)[nH]c2=O)O1` [compound 107, 1-((2R,5S)-5-(methoxymethyl)-2,5-dihydrofuran-2-yl)-5-methylpyrimidine-2,4(1H,3H)-dione] is 3.3-fold lower in IC50: 24 µM for the first, 7.3 µM for the second.

First: Nc1nc(=O)n([C@H]2C[C@@H]3OC=C[C@]3(CO)O2)cc1F [compound 139, 4-amino-5-fluoro-1-((2R,3aS,6aR)-6a-(hydroxymethyl)-2,3,3a,6a-tetrahydrofuro[3,2-b]furan-2-yl)pyrimidin-2(1H)-one]
Second: N#C[C@]1(CO)O[C@@H](n2cc(Cl)c(N)nc2=O)C[C@@H]1O [compound 164, (2R,3S,5R)-5-(4-amino-5-chloro-2-oxopyrimidin-1(2H)-yl)-3-hydroxy-2-(hydroxymethyl)tetrahydrofuran-2-carbonitrile]
The IC50 of the first is lower: 3.17 µM for the first, greater than 50 µM for the second. The first is the more potent here.

`Nc1nc(F)nc2c1ncn2[C@H]1C[C@H](O)C(CO)(CO)O1` [compound 154, ((3S,5R)-5-(6-amino-2-fluoro-9H-purin-9-yl)-3-hydroxytetrahydrofuran-2,2-diyl)dimethanol] and `CC[C@]1(CO)O[C@@H](n2cnc3c(N)nc(Cl)nc32)C[C@@H]1O` [compound 190, (2R,3S,5R)-5-(6-amino-2-chloro-9H-purin-9-yl)-2-ethyl-2-(hydroxymethyl)tetrahydrofuran-3-ol] cannot be ordered by IC50: greater than 40 µM for the first, roughly 50 µM for the second.

Going from `COc1nc(N)nc2c1ncn2[C@H]1C[C@H](O)[C@](CO)(CF)O1` [compound 163, (2R,3S,5R)-5-(2-amino-6-methoxy-9H-purin-9-yl)-2-(fluoromethyl)-2-(hydroxymethyl)tetrahydrofuran-3-ol] to `CNc1nc(N)nc2c1ncn2[C@H]1C[C@H](O)[C@](CO)(CF)O1` [compound 166, (2R,3S,5R)-5-(2-amino-6-(methylamino)-9H-purin-9-yl)-2-(fluoromethyl)-2-(hydroxymethyl)tetrahydrofuran-3-ol], the IC50 falls from 14 µM to 0.417 µM (34-fold). The second is the more potent here.

First: C[C@]1(CO)O[C@@H](n2cc(F)c(=O)[nH]c2=O)[C@H](O)[C@@H]1O [compound 189, 1-((2R,3R,4S,5R)-3,4-dihydroxy-5-(hydroxymethyl)-5-methyltetrahydrofuran-2-yl)-5-fluoropyrimidine-2,4(1H,3H)-dione]
Second: C[C@]1(CO)O[C@@H](n2ccc(N)nc2=O)[C@H](O)[C@@H]1O [compound 198, 4-amino-1-((2R,3R,4S,5R)-3,4-dihydroxy-5-(hydroxymethyl)-5-methyltetrahydrofuran-2-yl)pyrimidin-2(1H)-one]
The IC50 of the first is lower: 9.17 µM for the first, greater than 50 µM for the second. The first is the more potent here.

Compared with `CC[C@]1(CO)O[C@@H](n2cnc3c(N)ncnc32)[C@@H](F)[C@@H]1O` [compound 192, (2R,3R,4S,5R)-5-(6-amino-9H-purin-9-yl)-2-ethyl-4-fluoro-2-(hydroxymethyl)tetrahydrofuran-3-ol], `CC[C@]1(CO)O[C@@H](n2cnc3c(N)ncnc32)[C@@H](O)[C@@H]1O` [compound 194, (2R,3S,4S,5R)-5-(6-amino-9H-purin-9-yl)-2-ethyl-2-(hydroxymethyl)tetrahydrofuran-3,4-diol] is 16-fold higher in IC50: 0.122 µM for the first, 1.94 µM for the second. The first is the more potent here.

Going from `CC[C@]1(CO)O[C@@H](n2cnc3c(N)nc(Cl)nc32)[C@@H](O)[C@@H]1O` [compound 193, (2R,3S,4S,5R)-5-(6-amino-2-chloro-9H-purin-9-yl)-2-ethyl-2-(hydroxymethyl)tetrahydrofuran-3,4-diol] to `CC[C@]1(CO)O[C@@H](n2cnc3c(N)nc(Cl)nc32)[C@H](O)[C@@H]1O` [compound 195, (2R,3S,4R,5R)-5-(6-amino-2-chloro-9H-purin-9-yl)-2-ethyl-2-(hydroxymethyl)tetrahydrofuran-3,4-diol], the IC50 rises from 2.81 µM to greater than 50 µM. The first is the more potent here.

`CC[C@]1(CO)O[C@@H](n2cnc3c(N)ncnc32)[C@H](O)[C@@H]1O` [compound 196, (2R,3S,4R,5R)-5-(6-amino-9H-purin-9-yl)-2-ethyl-2-(hydroxymethyl)tetrahydrofuran-3,4-diol] and `C#C[C@]1(CO)O[C@@H](n2ccc(N)nc2=O)C(F)(F)[C@@H]1O` [compound 200, 4-amino-1-((2R,4R,5R)-5-ethynyl-3,3-difluoro-4-hydroxy-5-(hydroxymethyl)tetrahydrofuran-2-yl)pyrimidin-2(1H)-one] cannot be ordered by IC50: greater than 50 µM for the first, 414 µM for the second.

Same assay, conditions: Human LINE-1 activity inhibition; HeLa cells, reporter plasmid pYX017, Firefly/Renilla, 72 h incubation

Compared with `CC[C@]1(CO)O[C@@H](n2cnc3c(N)nc(Cl)nc32)[C@@H](F)[C@@H]1O` [compound 182, (2R,3R,4S,5R)-5-(6-amino-2-chloro-9H-purin-9-yl)-2-ethyl-4-fluoro-2-(hydroxymethyl)tetrahydrofuran-3-ol], `CC[C@]1(CO)O[C@@H](n2cnc3c(N)nc(F)nc32)[C@@H](F)[C@@H]1O` [compound 191, (2R,3R,4S,5R)-5-(6-amino-2-fluoro-9H-purin-9-yl)-2-ethyl-4-fluoro-2-(hydroxymethyl)tetrahydrofuran-3-ol] is 5.2-fold lower in IC50: 293 µM for the first, 56 µM for the second.
